Reference: publication PMC7156458, “Synthetic biology based construction of biological activity-related library of fungal decalin-containing diterpenoid pyrones” (Nature Communications, 2020)

Target: Aβ42 (Homo sapiens, UniProt P05067)
Assay: Th-T (thioflavin-T) assay of Aβ42 aggregation
Assay type: biochemical
Details: for Th-T assay plate reading, mean of three wells (Supplementary Fig. 47): source data, Ab alone and No Ab as controls

Sequence of Aβ42 (P05067 672-713): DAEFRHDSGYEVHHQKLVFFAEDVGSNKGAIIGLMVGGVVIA

C=C1CCC2C(C)(CC(=O)C=C(C)C)C(O)CCC2(C)C1Cc1c(OC)oc(C)c(C)c1=O (centres unmarked) [Compound 25]
Th-T fluorescence, mean of three wells (Aβ42 aggregation time course, reading M117): 3.606 | Th-T fluorescence, mean of three wells (Aβ42 aggregation time course, reading M118): 3.615 | Th-T fluorescence, mean of three wells (Aβ42 aggregation time course, reading M119): 3.596 | Th-T fluorescence, mean of three wells (Aβ42 aggregation time course, reading M120): 3.613 | Th-T fluorescence, mean of three wells (Aβ42 aggregation time course, reading M121): 3.583 | Th-T fluorescence, mean of three wells (Aβ42 aggregation time course, reading M122): 3.577 | Th-T fluorescence, mean of three wells (Aβ42 aggregation time course, reading M123): 3.546 | Th-T fluorescence, mean of three wells (Aβ42 aggregation time course, reading M124): 3.572 | Th-T fluorescence, mean of three wells (Aβ42 aggregation time course, reading M125): 3.555 | Th-T fluorescence, mean of three wells (Aβ42 aggregation time course, reading M126): 3.529 | Th-T fluorescence, mean of three wells (Aβ42 aggregation time course, reading M127): 3.54 | Th-T fluorescence, mean of three wells (Aβ42 aggregation time course, reading M128): 3.504 | Th-T fluorescence, mean of three wells (Aβ42 aggregation time course, reading M129): 3.564 | Th-T fluorescence, mean of three wells (Aβ42 aggregation time course, reading M130): 3.54 | Th-T fluorescence, mean of three wells (Aβ42 aggregation time course, reading M131): 3.5322 | Th-T fluorescence, mean of three wells (Aβ42 aggregation time course, reading M132): 3.554 | Th-T fluorescence, mean of three wells (Aβ42 aggregation time course, reading M133): 3.505 | Th-T fluorescence, mean of three wells (Aβ42 aggregation time course, reading M134): 3.525 | Th-T fluorescence, mean of three wells (Aβ42 aggregation time course, reading M135): 3.538 | Th-T fluorescence, mean of three wells (Aβ42 aggregation time course, reading M136): 3.5303 | Th-T fluorescence, mean of three wells (Supplementary Fig. 47, reading M137): 3.5763 | Th-T fluorescence, mean of three wells (Supplementary Fig. 47, reading M138): 3.512 | Th-T fluorescence, mean of three wells (Supplementary Fig. 47, reading M139): 3.524 | Th-T fluorescence, mean of three wells (Supplementary Fig. 47, reading M140): 3.521 | Th-T fluorescence, mean of three wells (Supplementary Fig. 47, reading M141): 3.497 | Th-T fluorescence, mean of three wells (Supplementary Fig. 47, reading M142): 3.5241 | Th-T fluorescence, mean of three wells (Supplementary Fig. 47, reading M143): 3.477 | Th-T fluorescence, mean of three wells (Supplementary Fig. 47, reading M144): 3.474 | Th-T fluorescence, mean of three wells (Supplementary Fig. 47, reading M145): 3.514 | Th-T fluorescence, mean of three wells (Supplementary Fig. 47 source data, measurement M37 of time course): 3.725 | Th-T fluorescence, mean of three wells (Supplementary Fig. 47 source data, measurement M38 of time course): 3.672 | Th-T fluorescence, mean of three wells (Supplementary Fig. 47 source data, measurement M39 of time course): 3.686 | Th-T fluorescence, mean of three wells (Supplementary Fig. 47 source data, measurement M40 of time course): 3.696 | Th-T fluorescence, mean of three wells (Supplementary Fig. 47 source data, measurement M41 of time course): 3.723 | Th-T fluorescence, mean of three wells (Supplementary Fig. 47 source data, measurement M42 of time course): 3.705 | Th-T fluorescence, mean of three wells (Supplementary Fig. 47 source data, measurement M43 of time course): 3.698 | Th-T fluorescence, mean of three wells (Supplementary Fig. 47 source data, measurement M44 of time course): 3.759 | Th-T fluorescence, mean of three wells (Supplementary Fig. 47 source data, measurement M45 of time course): 3.771 | Th-T fluorescence, mean of three wells (Supplementary Fig. 47 source data, measurement M46 of time course): 3.76 | Th-T fluorescence, mean of three wells (Supplementary Fig. 47 source data, measurement M47 of time course): 3.73 | Th-T fluorescence, mean of three wells (Supplementary Fig. 47 source data, measurement M48 of time course): 3.764 | Th-T fluorescence, mean of three wells (Supplementary Fig. 47 source data, measurement M49 of time course): 3.767 | Th-T fluorescence, mean of three wells (Supplementary Fig. 47 source data, measurement M50 of time course): 3.788 | Th-T fluorescence, mean of three wells (Supplementary Fig. 47 source data, measurement M51 of time course): 3.755 | Th-T fluorescence, mean of three wells (Supplementary Fig. 47 source data, measurement M52 of time course): 3.752 | Th-T fluorescence, mean of three wells (Supplementary Fig. 47 source data, measurement M53 of time course): 3.724 | Th-T fluorescence, mean of three wells (Supplementary Fig. 47 source data, measurement M54 of time course): 3.756 | Th-T fluorescence, mean of three wells (Supplementary Fig. 47 source data, measurement M55 of time course): 3.771 | Th-T fluorescence, mean of three wells (Supplementary Fig. 47 source data, measurement M56 of time course): 3.762 | Th-T assay plate reading, mean of three wells (Supplementary Fig. 47) (measurement M1): 0.2149 | Th-T assay plate reading, mean of three wells (Supplementary Fig. 47) (measurement M2): 0.2276 | Th-T assay plate reading, mean of three wells (Supplementary Fig. 47) (measurement M3): 0.2865 | Th-T assay plate reading, mean of three wells (Supplementary Fig. 47) (measurement M4): 0.3444 | Th-T assay plate reading, mean of three wells (Supplementary Fig. 47) (measurement M5): 0.4109 | Th-T assay plate reading, mean of three wells (Supplementary Fig. 47) (measurement M6): 0.436 | Th-T assay plate reading, mean of three wells (Supplementary Fig. 47) (measurement M7): 0.4804 | Th-T assay plate reading, mean of three wells (Supplementary Fig. 47) (measurement M8): 0.5318 | Th-T assay plate reading, mean of three wells (Supplementary Fig. 47) (measurement M9): 0.5868 | Th-T assay plate reading, mean of three wells (Supplementary Fig. 47) (measurement M10): 0.6365 | Th-T assay plate reading, mean of three wells (Supplementary Fig. 47) (measurement M11): 0.7058 | Th-T assay plate reading, mean of three wells (Supplementary Fig. 47) (measurement M12): 0.8261 | Th-T assay plate reading, mean of three wells (Supplementary Fig. 47) (measurement M13): 1.145 | Th-T assay plate reading, mean of three wells (Supplementary Fig. 47) (measurement M14): 1.723 | Th-T assay plate reading, mean of three wells (Supplementary Fig. 47) (measurement M15): 2.352 | Th-T assay plate reading, mean of three wells (Supplementary Fig. 47) (measurement M16): 2.814 | Th-T fluorescence, mean of three wells (reading M17, Supplementary Fig. 47 source data): 3.101 | Th-T fluorescence, mean of three wells (reading M18, Supplementary Fig. 47 source data): 3.246 | Th-T fluorescence, mean of three wells (reading M19, Supplementary Fig. 47 source data): 3.285 | Th-T fluorescence, mean of three wells (reading M20, Supplementary Fig. 47 source data): 3.357 | Th-T fluorescence, mean of three wells (reading M21, Supplementary Fig. 47 source data): 3.385 | Th-T fluorescence, mean of three wells (reading M22, Supplementary Fig. 47 source data): 3.422 | Th-T fluorescence, mean of three wells (reading M23, Supplementary Fig. 47 source data): 3.453 | Th-T fluorescence, mean of three wells (reading M24, Supplementary Fig. 47 source data): 3.499 | Th-T fluorescence, mean of three wells (reading M25, Supplementary Fig. 47 source data): 3.518 | Th-T fluorescence, mean of three wells (reading M26, Supplementary Fig. 47 source data): 3.525 | Th-T fluorescence, mean of three wells (reading M27, Supplementary Fig. 47 source data): 3.564 | Th-T fluorescence, mean of three wells (reading M28, Supplementary Fig. 47 source data): 3.572 | Th-T fluorescence, mean of three wells (reading M29, Supplementary Fig. 47 source data): 3.591 | Th-T fluorescence, mean of three wells (reading M30, Supplementary Fig. 47 source data): 3.63 | Th-T fluorescence, mean of three wells (reading M31, Supplementary Fig. 47 source data): 3.6544 | Th-T fluorescence, mean of three wells (reading M32, Supplementary Fig. 47 source data): 3.711 | Th-T fluorescence, mean of three wells (reading M33, Supplementary Fig. 47 source data): 3.704 | Th-T fluorescence, mean of three wells (reading M34, Supplementary Fig. 47 source data): 3.671 | Th-T fluorescence, mean of three wells (reading M35, Supplementary Fig. 47 source data): 3.708 | Th-T fluorescence, mean of three wells (reading M36, Supplementary Fig. 47 source data): 3.706 | Th-T fluorescence, mean of three wells (time course, reading M57): 3.709 | Th-T fluorescence, mean of three wells (time course, reading M58): 3.763 | Th-T fluorescence, mean of three wells (time course, reading M59): 3.775 | Th-T fluorescence, mean of three wells (time course, reading M60): 3.734 | Th-T fluorescence, mean of three wells (time course, reading M61): 3.716 | Th-T fluorescence, mean of three wells (time course, reading M62): 3.783 | Th-T fluorescence, mean of three wells (time course, reading M63): 3.7203 | Th-T fluorescence, mean of three wells (time course, reading M64): 3.6972 | Th-T fluorescence, mean of three wells (time course, reading M65): 3.735 | Th-T fluorescence, mean of three wells (time course, reading M66): 3.755 | Th-T fluorescence, mean of three wells (time course, reading M67): 3.725 | Th-T fluorescence, mean of three wells (time-course reading M97, Supplementary Fig. 47 source data): 3.595 | Th-T fluorescence, mean of three wells (time-course reading M98, Supplementary Fig. 47 source data): 3.647 | Th-T fluorescence, mean of three wells (time-course reading M99, Supplementary Fig. 47 source data): 3.679 | Th-T fluorescence, mean of three wells (time-course reading M100, Supplementary Fig. 47 source data): 3.653 | Th-T fluorescence, mean of three wells (time-course reading M101, Supplementary Fig. 47 source data): 3.662 | Th-T fluorescence, mean of three wells (time-course reading M102, Supplementary Fig. 47 source data): 3.581 | Th-T fluorescence, mean of three wells (time-course reading M103, Supplementary Fig. 47 source data): 3.611 | Th-T fluorescence, mean of three wells (time-course reading M104, Supplementary Fig. 47 source data): 3.626 | Th-T fluorescence, mean of three wells (time-course reading M105, Supplementary Fig. 47 source data): 3.605 | Th-T fluorescence, mean of three wells (time-course reading M106, Supplementary Fig. 47 source data): 3.616 | Th-T fluorescence, mean of three wells (time-course reading M107, Supplementary Fig. 47 source data): 3.656 | Th-T fluorescence, mean of three wells (time-course reading M108, Supplementary Fig. 47 source data): 3.6 | Th-T fluorescence, mean of three wells (time-course reading M109, Supplementary Fig. 47 source data): 3.632 | Th-T fluorescence, mean of three wells (time-course reading M110, Supplementary Fig. 47 source data): 3.606 | Th-T fluorescence, mean of three wells (time-course reading M111, Supplementary Fig. 47 source data): 3.628 | Th-T fluorescence, mean of three wells (time-course reading M112, Supplementary Fig. 47 source data): 3.629 | Th-T fluorescence, mean of three wells (time-course reading M113, Supplementary Fig. 47 source data): 3.58 | Th-T fluorescence, mean of three wells (time-course reading M114, Supplementary Fig. 47 source data): 3.62 | Th-T fluorescence, mean of three wells (time-course reading M115, Supplementary Fig. 47 source data): 3.596 | Th-T fluorescence, mean of three wells (time-course reading M116, Supplementary Fig. 47 source data): 3.5953
